Laboratory results from patent publication US20250340538A1, “IMIDAZOLONE DERIVATIVES AS INHIBITORS OF PROTEIN KINASES IN PARTICULAR DYRK1A, CLK1 AND/OR CLK4” (PERHA PHARMACEUTICALS, priority 2021, published 2025).
pIC50: −log10 of the molar value.

Key:
[1] = target: T1, CLK1 (Homo sapiens, UniProt P49759); assay: Radiometric protein kinase assay (33PanQinase Activity Assay), CLK1; assay type: biochemical; conditions: class by IC50 on CLK1, from dose-response curves; read-out: Potency Class CLK1
T1 construct: GST-fusion or His-tag (not specified per kinase); purchased ProQinase GmbH; host or cells: Sf9 insect cells or E. coli (not specified per kinase)
Procedure: Assays were performed by ProQinase GmbH (Engesserstr. 4, D-79108 Freiburg, Germany. www.proqinase.com). The IC50 profile of all compounds was determined using 12 protein kinases (CDK2/cyclin E, CK1ε, CLK1, 2, 3, 4, DYRK1A, 1B, 2, 3, 4, GSK3β).
(§1) The compounds were provided as […] in 100% DMSO. Prior to testing, the 1 μM stock solutions were subjected to a serial, semi-logarithmic dilution using 100% DMSO as a solvent. […] In the process, 90 μl H2O were added to each well of each compound dilution plate. To minimize potential precipitation, the H2O was added to each plate only a few minutes before the transfer of the compound solutions into the assay plates. The plate was shaken thoroughly, resulting in a compound dilution plate/10% DMSO.
(§2) For the assays (see below), 5 μL solution from each well of the compound dilution plates/10% DMSO were transferred into the assay plates. The final volume of the assay was 50 μL. All compounds were tested at 10 final assay concentrations in the range from 10 μM to 30 nM. The final DMSO concentration in the reaction cocktails was 1% in all cases.
(§3) All protein kinases provided by ProQinase were expressed in Sf9 insect cells or in E. coli as recombinant GST-fusion proteins or His-tagged proteins, either as full-length or enzymatically active fragments. All kinases were produced from human cDNAs and purified by either GSH-affinity chromatography or immobilized metal. Affinity tags were removed from a number of kinases during purification. The purity of the protein kinases was examined by SDS-PAGE/Coomassie staining, the identity was checked by mass spectroscopy.
(§4) A radiometric protein kinase assay (33PanQinase® Activity Assay) was used for measuring the kinase activity of the 12 protein kinases. All kinase assays were performed in 96-well FlashPlates™ from PerkinElmer (Boston, MA, USA) in a 50 μL reaction volume. The reaction cocktail was pipetted in four steps in the following order: • 25 μL of assay buffer (standard buffer/[γ-^33P]-ATP), • 10 μL of ATP solution (in H2O), • 5 μL of test compound (in 10% DMSO), • 10 μL of enzyme/substrate mixture.
(§5) The reaction cocktails were incubated at 30° C. for 60 minutes. The reaction was stopped with 50 μL of 2% (v/v) H3PO4, plates were aspirated and washed two times with 200 μL 0.9% (w/v) NaCl. Incorporation of ^33Pi was determined with a microplate scintillation counter (Microbeta, Wallac). The IC50 values for all compounds were calculated from the dose response curves
As a parameter for assay quality, the Z′-factor (Zhang et al., J. Biomol. Screen. 2: 67-73, 1999) for the low and high controls of each assay plate (n=8) was used. ProQinase's criterion for repetition of an assay plate is a Z′-factor below 0.4 (Iversen et al., J. Biomol. Screen. 3: 247-252, 2006).

[2] = target: T2, DYRK1A (Homo sapiens, UniProt Q13627); assay: Radiometric protein kinase assay (33PanQinase Activity Assay), DYRK1A; assay type: biochemical; conditions: for pIC50: class by IC50 on DYRK1A, from dose-response curves, read-out: Potency Class DYRK1A; for Selectivity Class DYRK1A vs. CLK1: ratio of IC50 on CLK1 over IC50 on DYRK1A; for Selectivity Class DYRK1A vs. DYRK1B: ratio of IC50 on DYRK1B over IC50 on DYRK1A
T2 construct: GST-fusion or His-tag (not specified per kinase); purchased ProQinase GmbH; host or cells: Sf9 insect cells or E. coli (not specified per kinase)
Procedure: The IC50 profile of all compounds was determined using 12 protein kinases (CDK2/cyclin E, CK1ε, CLK1, 2, 3, 4, DYRK1A, 1B, 2, 3, 4, GSK3β).
as §1, §2, §3, §4, §5

T1 sequence (P49759 whole entry, the tested form may be a part): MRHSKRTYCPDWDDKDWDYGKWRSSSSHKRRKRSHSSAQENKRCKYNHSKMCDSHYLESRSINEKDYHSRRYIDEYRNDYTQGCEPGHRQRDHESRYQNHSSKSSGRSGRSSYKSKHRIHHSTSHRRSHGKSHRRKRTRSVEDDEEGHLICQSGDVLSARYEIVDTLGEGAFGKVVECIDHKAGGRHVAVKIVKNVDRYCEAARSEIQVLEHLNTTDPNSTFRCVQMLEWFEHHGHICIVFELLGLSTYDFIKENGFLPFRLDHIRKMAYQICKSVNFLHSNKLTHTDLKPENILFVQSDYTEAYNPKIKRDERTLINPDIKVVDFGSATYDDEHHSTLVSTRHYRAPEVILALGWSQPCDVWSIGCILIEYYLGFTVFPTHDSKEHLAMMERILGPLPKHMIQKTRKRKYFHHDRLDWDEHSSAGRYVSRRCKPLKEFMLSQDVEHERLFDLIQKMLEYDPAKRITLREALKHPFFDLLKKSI

Row | pIC50 [1] | pIC50 [2] | Selectivity Class DYRK1A vs. CLK1 [2] | Selectivity Class DYRK1A vs. DYRK1B [2] | Compound
1 | < 7.30 | < 7.30 | III (ratio between 0.5 and 2 fold) | II (ratio between 2 and 10 fold) | O=C1NC(NC2CCCCCC2)=N/C1=C\c1ccc2ncccc2c1 [Compound 44, (4Z)-2-(cycloheptylamino)-4-(6-quinolylmethylene)-1H-imidazol-5-one]
2 | < 7.30 | < 7.30 | IV (ratio between 0.1 and 0.5 fold) | II (ratio between 2 and 10 fold) | O=C1NC(NCC2CCCCC2)=N/C1=C\c1ccc2ncccc2c1 [Compound 45, (4Z)-2-(Cyclohexylmethylamino)-4-(6-quinolylmethylene)-1H-imidazol-5-one]
3 | < 7.30 | 7.60 to 8.00 | II (ratio between 2 and 10 fold) | II (ratio between 2 and 10 fold) | CC(C)C[C@H](CO)NC1=N/C(=C\c2ccc3ncccc3c2)C(=O)N1 [Compound 46, (4Z)-2-[[(1R)-1-(hydroxymethyl)-3-methyl-butyl]amino]-4-(6-quinolylmethylene)-1H-imidazol-5-one]
4 | < 7.30 | 7.30 to 7.60 | II (ratio between 2 and 10 fold) | II (ratio between 2 and 10 fold) | COC[C@@H](CC(C)C)NC1=N/C(=C\c2ccc3ncccc3c2)C(=O)N1 [Compound 47, (4Z)-2-[[(1R)-1-(methoxymethyl)-3-methyl-butyl]amino]-4-(6-quinolylmethylene)-1H-imidazol-5-one]
5 | < 7.30 | < 7.30 | IV (ratio between 0.1 and 0.5 fold) | II (ratio between 2 and 10 fold) | O=C1NC(NCc2ccccc2)=N/C1=C\c1ccc2ncccc2c1 [Compound 51]
6 | < 7.30 | < 7.30 | III (ratio between 0.5 and 2 fold) | II (ratio between 2 and 10 fold) | COC[C@H](NC1=N/C(=C\c2ccc3ncccc3c2)C(=O)N1)c1ccccc1 [Compound 52, (4Z)-2-[[(1R)-2-methoxy-1-phenyl-ethyl]amino]-4-(6-quinolylmethylene)-1H-imidazol-5-one]
7 | < 7.30 | < 7.30 | IV (ratio between 0.1 and 0.5 fold) | III (ratio between 0.5 and 2 fold) | Cc1cnc(CNC2=N/C(=C\c3ccc4ncccc4c3)C(=O)N2)cn1 [Compound 53, (4Z)-2-[(5-Methylpyrazin-2-yl)methylamino]-4-(6-quinolylmethylene)-1H-imidazol-5-one]
8 | < 7.30 | < 7.30 | III (ratio between 0.5 and 2 fold) | II (ratio between 2 and 10 fold) | Cn1ccc(NC2=N/C(=C\c3ccc4ncccc4c3)C(=O)N2)n1 [Compound 54, (4Z)-2-[(1-methylpyrazol-3-yl)amino]-4-(6-quinolylmethylene)-1H-imidazol-5-one]
9 | < 7.30 | < 7.30 | III (ratio between 0.5 and 2 fold) | III (ratio between 0.5 and 2 fold) | O=C1NC(N[C@@H]2CCOC2)=N/C1=C\c1ccc2ncccc2c1 [Compound 55, (4Z)-4-(6-Quinolylmethylene)-2-[[(3R)-tetrahydrofuran-3-yl]amino]-1H-imidazol-5-one]
10 | < 7.30 | < 7.30 | III (ratio between 0.5 and 2 fold) | II (ratio between 2 and 10 fold) | O=C1NC(N[C@@H]2CCCOC2)=N/C1=C\c1ccc2ncccc2c1 [Compound 56, (4Z)-4-(6-quinolylmethylene)-2-[[(3R)-tetrahydropyran-3-yl]amino]-1H-imidazol-5-one]
11 | < 7.30 | < 7.30 | III (ratio between 0.5 and 2 fold) | III (ratio between 0.5 and 2 fold) | O=C1NC(NC2CCCCCC2)=N/C1=C\c1ccc2cnccc2c1 [Compound 57, (4Z)-2-(cycloheptylamino)-4-(6-isoquinolylmethylene)-1H-imidazol-5-one]
12 | < 7.30 | < 7.30 | IV (ratio between 0.1 and 0.5 fold) | III (ratio between 0.5 and 2 fold) | O=C1NC(NCC2CCCCC2)=N/C1=C\c1ccc2cnccc2c1 [Compound 58, (4Z)-2-(Cyclohexylmethylamino)-4-(6-isoquinolylmethylene)-1H-imidazol-5-one]
13 | < 7.30 | < 7.30 | III (ratio between 0.5 and 2 fold) | III (ratio between 0.5 and 2 fold) | CC(C)C[C@H](CO)NC1=N/C(=C\c2ccc3cnccc3c2)C(=O)N1 [Compound 59, (4Z)-2-[[(1R)-1-(hydroxymethyl)-3-methyl-butyl]amino]-4-(6-isoquinolylmethylene)-1H-imidazol-5-one]
14 | < 7.30 | < 7.30 | II (ratio between 2 and 10 fold) | III (ratio between 0.5 and 2 fold) | COC[C@@H](CC(C)C)NC1=N/C(=C\c2ccc3cnccc3c2)C(=O)N1 [Compound 60, (4Z)-4-(6-isoquinolylmethylene)-2-[[(1R)-1-(methoxymethyl)-3-methyl-butyl]amino]-1H-imidazol-5-one]
15 | < 7.30 | < 7.30 | IV (ratio between 0.1 and 0.5 fold) | III (ratio between 0.5 and 2 fold) | COC[C@H](NC1=N/C(=C\c2ccc3cnccc3c2)C(=O)N1)c1ccccc1 [Compound 63, (4Z)-4-(6-isoquinolylmethylene)-2-[[(1R)-2-methoxy-1-phenyl-ethyl]amino]-1H-imidazol-5-one]
16 | < 7.30 | < 7.30 | III (ratio between 0.5 and 2 fold) | IV (ratio between 0.1 and 0.5 fold) | Cc1cnc(CNC2=N/C(=C\c3ccc4cnccc4c3)C(=O)N2)cn1 [Compound 64, (4Z)-4-(6-Isoquinolylmethylene)-2-[(5-methylpyrazin-2-yl)methylamino]-1H-imidazol-5-one]
17 | < 7.30 | < 7.30 | IV (ratio between 0.1 and 0.5 fold) | III (ratio between 0.5 and 2 fold) | Cn1ccc(NC2=N/C(=C\c3ccc4cnccc4c3)C(=O)N2)n1 [Compound 65, (4Z)-4-(6-Isoquinolylmethylene)-2-[(1-methylpyrazol-3-yl)amino]-1H-imidazol-5-one]
18 | < 7.30 | < 7.30 | III (ratio between 0.5 and 2 fold) | IV (ratio between 0.1 and 0.5 fold) | O=C1NC(N[C@@H]2CCOC2)=N/C1=C\c1ccc2cnccc2c1 [Compound 66, (4Z)-4-(6-Isoquinolylmethylene)-2-[[(3R)-tetrahydrofuran-3-yl]amino]-1H-imidazol-5-one]

Row | Compound | pIC50 [1] | pIC50 [2] | Selectivity Class DYRK1A vs. CLK1 [2] | Selectivity Class DYRK1A vs. DYRK1B [2]
19 | O=C1NC(NCc2ccccc2)=N/C1=C\c1ccc2cnccc2c1 [Compound 62, (4Z)-2-(benzylamino)-4-(6-isoquinolylmethylene)-1H-imidazol-5-one] | < 7.30 | < 7.30 | V (ratio >0.1 fold (most CLK1- or DYRK1B-selective compounds)) | IV (ratio between 0.1 and 0.5 fold)
